Test results taken from patent US6492325B1, “Use of α1β1 integrin receptor inhibitors and TGF-β1 inhibitors in the treatment of kidney disease” (Boys Town National Research Hospital, priority 1998, dated 2002).

Key:
129 Sv/J Alport mouse [1] = test: TGF-β1 inhibitors in 129 Sv/J Alport mouse, transmission electron microscopy of GBM ultrastructure; type: in vivo; conditions: 7 week old Alport mice, treated twice weekly from 3 weeks of age
Description: (§1) A. Transmission Electron Microscopy: Fresh external renal cortex was minced in 4% paraformaldehyde, allowed to fix for 2 hours, and stored at 5° C. in PBS (pH 7.4). The tissue was washed extensively (5 times for 10 minutes each at 4° C.) with 0.1M Sorenson's buffer (Sorenson's buffer was made by combining 100 ml of 200 mM monobasic sodium phosphate and 400 ml of 200 mM dibasic sodium phosphate with 500 ml of water, and adjusted to pH 7.4), and postfixed in 1% osmium tetroxide in Sorenson's buffer for 1 hour. The tissue was then dehydrated in graded ethanol (70%, then 80%, then 90%, then 100% for ten minutes each), and finally in propylene oxide and embedded in Poly/Bed 812 epoxy resin (Polysciences, Inc., Warrington, Pa.) following the procedures described by the manufacturer. In short, 42 ml of polybed 812 was mixed with 26 ml of dodecylsuccinic anhydride (DDSA, Polysciences, Inc.) and 24 ml of nadic methyl anhydride (Polysciences Inc.). One and a half mls of 2,4,6 tri(dimethly aminomethyl) phenol was added as a catalyst, and the activated resin frozen in 10 ml aliquots until needed for embedding specimen. Glomeruli were identified in 1 μm (micron) sections stained with toluidine blue, and thin sections were cut at 70 nm (nanometer) thickness using a Reichert Jung Ultracut E ultramicrotome (Cambridge Instrument Co, Vienna, Austria). […]

double knockout mice [2] = test: Immunoperoxidase staining for collagen type I and fibronectin in tubulointerstitium of double knockout mice; type: in vivo, mouse; conditions: 10 week old double knockout mice
From the text: E. Immunoperoxidase Detection: The immunoperoxidase detection method was used in immunostaining for TGF-β1 in glomeruli as well as fibronectin and collagen type I in tubunointerstitium. The collagen type I antibody is rabbit anti-mouse, and was purchased from Biogenesis, Inc. (Sandown, N.H.). The antisera was used at a 1:100 dilution for immunoperoxidase staining. The fibronectin antibody used was the same as for immunfluorescence staining (a rabbit anti-human fibronectin antisera from Sigma Chemical Company, St. Louis, Mo.), and was used at a 1:100 dilution. […]
(§2) Mice (DKO mice are null for both the collagen α3(IV) and integrin α1 genes) were injected with TGF-β1 inhibitors FK506 (2 μg/gram body weight, twice weekly, intraperitoneal injections) or Biogen's TGF-β1 soluble receptor (25 μg per injection, twice weekly, intravenous injections) starting at four weeks of age. The kidneys were taken at 10 weeks of age and analyzed. […]
The role of TGF-β1 in upregulation of matrix proteins and in renal fibrosis has been well established (Yang et al., J. Am. Soc. Nephrol., 5:1610-1617, 1995; Border and Ruoslahti, J. Clin. Invest., 90:1-7, 1992). […] Animals injected with TGF-β1 inhibitors were analyzed using three markers for interstitial fibrosis and compared directly with 10 week old double knockout animals that were not treated with inhibitors. […]

[3] = system: double knockout (DKO) mice; test: TGF-β1 inhibitors in double knockout mice, urinary albumin (proteinuria) by gel electrophoresis; type: in vivo, mouse
Description: Urine samples were collected at weekly intervals and 0.5 μl fractionated by electrophoresis through 10% denaturing acrylamide gels. The protein in the gels was stained with coomassie blue and photographed. Bovine serum albumin was used as a molecular weight standard.
Mice (DKO mice are null for both the collagen α3(IV) and integrin α1 genes) were injected with TGF-β1 inhibitors FK506 (2 μg/gram body weight, twice weekly, intraperitoneal injections) or Biogen's TGF-β1 soluble receptor (25 μg per injection, twice weekly, intravenous injections) starting at four weeks of age. The kidneys were taken at 10 weeks of age and analyzed. The 10 week time point was chosen since, in the double knockouts, the disease typically progresses to the point where significant irregular thickening of the GBM is observed, and the animals are beginning to progress towards end stage renal failure. Thus, if the TGF-β1 inhibitors are to provide additional protective benefits, those benefits should be evident at this stage in GBM disease progression. […] A typical example of these differences is illustrated in FIG. 14. […]
Proteinuria was examined in these same mice collected weekly during the course of treatment. Samples (equivalent to approximately one half of one microliter) were analyzed by electrophoresis on polyacrylamide gels. […]

129 Sv/J Alport mouse [4] = test: Dual immunofluorescence staining for laminin α2 chain in glomeruli of treated Alport mice; type: in vivo; conditions: 7 week old 129 Sv/J Alport mouse
Description: (§3) The experimental protocol was to inject with either FK506 (2 μg/g body weight, injected intraperitoneally, Fujisawa Pharmaceutical Co., Ltd., Osaka, Japan), or a soluble TGF-B1 receptor (25 μg/injection, intravenously through the tail vein, Biogen Inc., Cambridge, Mass.) twice weekly starting at 3 weeks of age. Kidneys were harvested at 7 weeks of age and subjected to the described analyses.
In dual fluorescence analysis, fresh renal cortex was embedded in Tissue Tek aqueous embedding compound, snap frozen, and cut at 4 microns on a cryostat. Slides were postfixed in cold (−20° C.) 100% acetone for 10 minutes, and then air dried overnight. Tissue was rehydrated by three washes in PBS for 10 minutes each. The primary antibodies were diluted together in 7% non-fat dry milk (BioRad). An anti-entactin antibody (Chemicon Inc.) was used as a known marker for glomerular basement membrane at a dilution of 1:200. The laminin α2 chain-specific antibody was a gift from Dr. Peter Yurchenco (Robert Wood Johnson Medical School, Piscataway, N.J.). The specificity of this antibody for the laminin α2 chain was illustrated in Cheng et al., J. Biol. Chem., 272:31525-31532, 1997. The antibody was used at a concentration of 1:10. Primary antibodies were allowed to react overnight at 4° C. in a humidified dish. […]

[5] = system: double knockout (DKO) mice; test: TGF-β1 inhibitors in double knockout mice, transmission electron microscopy of GBM ultrastructure; type: in vivo, mouse; conditions: treated twice weekly from 4 weeks, kidneys taken at 10 weeks
Description: as §1, with “Inc.).” for “Inc.). One and a half mls of 2,4,6 tri(dimethly aminomethyl) phenol was added as a catalyst, and the activated resin frozen in 10 ml aliquots until needed for embedding specimen. Glomeruli were identified in 1 μm (micron) sections stained with toluidine blue, and thin sections were cut at 70 nm (nanometer) thickness using a Reichert Jung Ultracut E ultramicrotome (Cambridge Instrument Co, Vienna, Austria).”
as §2

double knockout mice [6] = test: Northern blot of kidney RNAs (matrix molecules, Timp) in double knockout mice treated with TGF-β1 inhibitors; type: in vivo, mouse; conditions: 10 week old double knockout mice; untreated show nine-fold reduction relative to control
Description: A. Northern Blot Analysis: Kidneys were removed and snap frozen in liquid nitrogen and ground to a powder in liquid nitrogen using a mortar and pestle. The powder was solubilized in TRIZOL reagent (GibCo/BRL, Grand Island, N.Y.) using 5 ml of reagent per kidney. Total cellular RNA was extracted according to the manufacturer's instructions. Twenty micrograms (20 μg) of RNA was fractionated on a 1.0% agarose/formaldehyde/MOPS (3-(N-morpholino)propanesulfonic acid) gel by electrophoresis at 80V for 4 hours. Gels were soaked in water for 45 minutes, and transferred to Hybond N (uncharged nylon, New England Nuclear, Inc., Boston, Mass.) by capillary blot overnight using 750 mM ammonium acetate (in water) as a transfer buffer. The RNA was UV crosslinked to the blot using a Stratalinker (Stratagene, Inc., LaJolla, Calif.). […] The quality of the RNA preparations and the consistency of loading was assessed by staining gels with ethidium bromide and scanning the 18S and 28S ribosomal RNA bands using a Gel Imager 2000 digital imaging system instrument and software package (Applied Imaging, Santa Clara, Calif.). […] Quantitative densitometric scanning confirmed no more than a 10% variance in sample loading. […] Quantitative differences in expression were assessed by phosphorimage analysis using a BioRad GS-525 phosphorimager (Bio Rad, Inc., Hercules, Calif.), and subtracted for background hybridization. […]

129 Sv/J Alport mouse [7] = test: TGF-β1 inhibitors in 129 Sv/J Alport mouse, scanning electron microscopy of glomeruli; type: in vivo; conditions: 7 week old Alport mice, treated twice weekly from 3 weeks of age
From the text: B. Scanning Electron Microscopy: Small pieces (approximately 2 mm cubes) of kidney cortex were fixed in 3% phosphate buffered glutaraldehyde, then postfixed in 1% phosphate buffered osmium tetroxide. Samples were then dehydrated in graded ethanols, and critical point dried in carbon dioxide. The cubes were then cracked in pieces by stressing them with the edge of a razor blade, and mounted with glue onto stubs with the cracked surface facing upward. The surface was sputter coated with gold/palladium using well known procedures and visualized with a scanning electron microscope.
as §3
Some of the kidney specimen was processed for scanning electron microscopy. Glomeruli were exposed by freeze fracture of renal cortex, which removes the Bowman's capsule, exposing the outer layer of podocytes as they cover the capillary loops of the glomerulus. […]

SMILES: C=CC[C@@H]1/C=C(\C)C[C@H](C)C[C@H](OC)[C@H]2O[C@@](O)(C(=O)C(=O)N3CCCC[C@H]3C(=O)O[C@H](/C(C)=C/[C@@H]3CC[C@@H](O)[C@H](OC)C3)[C@H](C)[C@@H](O)CC1=O)[C@H](C)C[C@@H]2OC [FK506, tacrolimus]
- GBM thickening (transmission electron microscopy) (129 Sv/J Alport mouse [1]): obvious lack of basement membrane thickening
- Podocyte foot process architecture (transmission electron microscopy) (129 Sv/J Alport mouse [1]): significant degree of swelling in the foot processes
- Collagen type I accumulation in interstitium of renal cortex (double knockout mice [2]): relative absence of collagen type I accumulation
- Performance of the glomerular filter (urinary albumin) ([3]; double knockout mice, relative to untreated double knockout mice, urine collected weekly): markedly improved
- Urinary protein bands related to nephrotoxic effects ([3]; normal and DKO mice treated with FK506): diffuse group of bands evident at every timepoint
- Accumulation of laminin α2 in the GBM (129 Sv/J Alport mouse [4]): does not prevent the accumulation of laminin α2
- Focal GBM thickening and foot process effacement (transmission electron microscopy) [5]: marked reduction of both focal GBM thickening and foot process effacement
- Timp-3 mRNA expression in kidney (double knockout mice [6]): reduction in Timp-3 expression is not observed
- Surface of the glomerulus / podocyte foot processes (scanning electron microscopy) (129 Sv/J Alport mouse [7]): looks much the same as that in the untreated Alport mouse
